The source of these data is patent EP0056114A1, “Pyridylamino benzoic acids, their preparation and use” (C.H. BOEHRINGER SOHN, priority 1981, dated 1982).

The structures appear in SMILES notation.

The test system of this assay is Ratte. As to the kind of experiment: PCA test in the rat, oral administration. Type of assay: in vivo. The conditions noted are these: factor by which the ED50 is lower than that of Verbindung A (no absolute ED50 printed).

As for `CC(C)c1ccc(Nc2ccc(C(=O)O)cc2C(=O)O)nc1`, the “Fold lower ED50 than compound A (rat PCA test, oral)” value is “ca. 100 mal”.
